The source of these data is patent US20230146870A1, “METHOD TO QUANTIFY AFFINITY AND SELECTIVITY OF SMALL MOLECULES FOR PROTEINS IN LIVING CELLS” (Ohio State Innovation Foundation, priority 2021, published 2023).

SMILES strings stand for the structures. Several values for one entry are separate records, joined by “and”; a condition that tells them apart may be missing. Equal values may be shown once.

Data set [1] has as its system cellular microtubules (HeLa cells). The data set is described as follows: Pilot screen of NCI Diversity Set VI: inhibition of binding of PB-GABA-Taxol, with dose-response validation.
In data set [2] the test system is microtubule network of HeLa cells (mScarlet-α-Tubulin). The data set is described as follows: Confocal microscopy of HeLa cells transfected with mScarlet-α-Tubulin. The data set is classed as cell-based. Conditions: 1 h at 37° C. As for the experimental part:
(FIG. 28C) Characterization of fluorescent microtubule phenotypes in HeLa cells transiently transfected with mScarlet-a-Tubulin and treated with the microtubule modulators (1 h at 37° C.). […] Scale bars=10 μm.
Cells were washed with PBS before treatment with PB-GABA-Taxol (100 nM) and (±)-verapamil hydrochloride (100 μM), with or without paclitaxel (10 μM) as a competitor, in phenol red-free DMEM supplemented with 10% FBS. Cells were incubated at 37° C. for 3 h prior to imaging by confocal microscopy. For experiments using HeLa cells transfected with mScarlet-α-tubulin, transient transfection was performed using a Invitrogen Lipofectamine 3000 Transfection kit (Thermo, L3000-075). Transfection used a 1× dose of lipid in OptiMEM (4% FBS) for 18 hours before washing of cells with PBS and treatment with the microtubule modulator for 1 h at 37° C.

Data set [3] deals with microtubules in living HeLa cells. The data set is described as follows: Allosteric modulator assay with PB-GABA-Taxol in living HeLa cells (cellular Kb, α). Conditions: PB-GABA-Taxol 1.5 μM, verapamil 100 μM, 3 h, 37° C.
From the text: In this model, two compounds that engage tubulin at different binding sites influence the binding of each other through cooperativity. […] Smaller cooperativity factors (α) represent stronger effects on binding of the orthosteric probe. For these allosteric modulators, the apparent cellular affinity was defined as Kb, and the mathematical relationship between Kb and α is provided (equation 3).
The experimental method for allosteric binding assays was identical to the competition binding assays described previously. However, because it is inaccurate to describe an allosteric modulator with a competitive inhibitory constant (Ki), we used an allosteric modulator model (Kb) for data analysis. […] The observed occupancy of the orthosteric ligand is defined as KApp and is determined by the equilibrium dissociation constant of the orthosteric ligand (Kd), the concentration of allosteric ligand, its affinity for the receptor (Kb), and the strength by which the allosteric ligand affects receptor binding to the orthosteric ligand as defined by the cooperativity factor (a).
Data set [4] concerns T1, microtubules in living HeLa cells.
T1 construct: rows headed: PB-GABA-Taxol molecules/cell at saturation; other: calibration beads, flow cytometry; other: HeLa cell volume 4.5; cellular Kd of PB-GABA-Taxol for microtubules; other: HeLa cells, 4% FBS, 37° C., verapamil 100 μM, 3 h; other: 10% FBS vs
The experiment in a line: Saturation binding of PB-GABA-Taxol in living HeLa cells by flow cytometry. As for the experimental part: To quantify the affinity of PB-GABA-Taxol for microtubules in living cells (cellular Kd), we developed the saturation binding method shown in FIG. 3. In this assay the cellular Kd was measured by varying the concentration of the fluorescent probe added to cells at equilibrium as established by kinetic assays of probe uptake. Total binding of this probe to specific and non-specific sites in cells in the presence of the efflux inhibitor verapamil was determined by flow cytometry. Non-specific binding was quantified separately by addition of excess paclitaxel with the probe under the same conditions. Subtraction of the linear non-specific binding contribution from the total binding curve was used analyze specific binding of the probe to tubulin of microtubules. […]
OptiMEM medium containing 4% FBS was prepared as 2× stock solutions of different concentrations of PB-GABA-Taxol by serial dilution (final [DMSO]=1.2%). […] The percentage of non-specific binding was determined as non-specific binding divided by total binding. The signal window (SW) was calculated as previously described^2: SW=[(mean top (maximum) signal−mean bottom (minimum) signal)−(3)*(SD top signal+SD bottom signal)]/(SD top signal), where SD=standard deviation.

Data set [5] deals with HeLa cells. The data set is described as follows: Cellular viability of trypsinized HeLa cells under binding assay conditions. It is filed as cell-based. Conditions: 180 min. As for the experimental part:
Samples contained PB-GABA-Taxol (1.5 μM) unless otherwise noted. Viability was analyzed by flow cytometry at the time points shown. Dead cells were identified by changes in light scattering and staining with propidium iodide (3 μM). Changes in viability were less than 10% at 180 min under the conditions used for saturation binding and competitive binding assays, even in the presence of 100 μM paclitaxel.
For saturation binding assays, HeLa cells were incubated with PB-GABA-Taxol at 37° C. for 180 min in the presence of verapamil (100 μM).

Data set [6] concerns the target crosslinked / purified microtubules. Conditions: previously reported; read-out: biochemical Kd for microtubules; cited from earlier work.
Data set [7] has as its system HeLa cells. The experiment in a line: Time to equilibrium / cellular uptake of PB-GABA-Taxol by flow cytometry. Conditions: probe 1.5 μM.
Method: Tubes were incubated in a plate shaker, and at each time point 150 pL of cells were analyzed, in triplicate, in wells containing propidium iodide (3 μM final concentration) to identify live cells by flow cytometry. Median pacific blue fluorescence was plotted as a function of time and half-time measurements were determined using an Exponential One-phase association model (GraphPad Prism 9).
For data set [8], the system named is microtubules (taxane binding site) in living HeLa cells. The experiment in a line: Competition binding assay with PB-GABA-Taxol in living HeLa cells (cellular Ki). Conditions: read-out: cellular Ki; PB-GABA-Taxol 1.5 μM, verapamil 100 μM, 37° C., 4% FBS, 3 h.
Method: In this assay the cellular Kd was measured by varying the concentration of the fluorescent probe added to cells at equilibrium as established by kinetic assays of probe uptake. Total binding of this probe to specific and non-specific sites in cells in the presence of the efflux inhibitor verapamil was determined by flow cytometry. Non-specific binding was quantified separately by addition of excess paclitaxel with the probe under the same conditions. Subtraction of the linear non-specific binding contribution from the total binding curve was used analyze specific binding of the probe to tubulin of microtubules. Measurement of this cellular dissociation constant under equilibrium conditions further allowed conversion of the half-maximal inhibitory concentration (IC50) of unlabeled compounds into cellular inhibitory constants using an adaptation of the Cheng-Prusoff equation^44 for competitive modulators (Ki) or the allosteric equation^45 for non-competitive modulators (Kb and the cooperativity factor α) as implemented by GraphPad Prism.
Data set [9] in a line: Cytotoxicity assay, 48 h, flow cytometry. It is filed as cell-based. Conditions: human, HeLa cells. The protocol: Trypsinized HeLa cells were resuspended at 40,000 cells/mL in DMEM medium containing 10% FBS and seeded at 8,000 cells/200 μL/well in a treated 96-well plate. The cells were incubated for 16 h at 37° C. The medium was removed and DMEM medium containing 10% FBS treated with compounds (prepared as 3-fold serial dilutions, 0.1% DMSO content) was added. Cells were treated for 48 h at 37° C. before removal of treated medium, washing cells with PBS (100 μL), and addition of Trypsin-EDTA (50 μL) for 10 min at 37° C. Trypsin was neutralized and cells resuspended by addition of 100 μL of complete medium treated with propidium iodide (final concentration 3 μM). Cellular viabilities were analyzed by gating of cells that lack fluorescence of propidium iodide by flow cytometry.

In data set [10] the target is T2, murine PKCβI-mVenus (Mus musculus, UniProt P68404).
T2 construct: fused on or other part: mVenus at the C-terminus
T2 sequence (P68404 2-621 limits assumed): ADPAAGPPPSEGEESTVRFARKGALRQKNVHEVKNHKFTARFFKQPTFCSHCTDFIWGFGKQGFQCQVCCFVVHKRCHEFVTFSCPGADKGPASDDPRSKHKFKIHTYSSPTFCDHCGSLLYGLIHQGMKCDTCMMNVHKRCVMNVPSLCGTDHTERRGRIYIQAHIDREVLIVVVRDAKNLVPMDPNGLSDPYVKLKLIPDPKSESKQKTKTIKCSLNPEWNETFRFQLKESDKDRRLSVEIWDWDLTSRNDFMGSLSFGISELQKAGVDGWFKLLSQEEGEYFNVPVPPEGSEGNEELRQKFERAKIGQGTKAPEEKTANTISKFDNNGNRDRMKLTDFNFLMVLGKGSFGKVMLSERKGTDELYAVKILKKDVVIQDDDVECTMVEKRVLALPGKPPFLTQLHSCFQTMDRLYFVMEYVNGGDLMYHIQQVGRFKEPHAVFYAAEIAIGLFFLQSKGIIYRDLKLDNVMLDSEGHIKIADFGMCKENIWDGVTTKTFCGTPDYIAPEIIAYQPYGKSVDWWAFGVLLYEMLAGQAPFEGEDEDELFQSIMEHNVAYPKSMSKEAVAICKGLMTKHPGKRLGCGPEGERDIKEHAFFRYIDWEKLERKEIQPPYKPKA
The experiment in a line: FPCBA saturation binding, HEK293 cells expressing PKCβI-mVenus (Example 3). Conditions: BIM1 2 μM, 2 h at 37° C., 4% FBS. An excerpt:
(§1) To investigate the potential for quantitative analysis of binding to PKCs expressed in cells, we evaluated whether 1-3 could readily achieve equilibrium, which is necessary for measurements of cellular equilibrium dissociation constants (Kd).

In data set [11] the target is T3, PKCβI-mVenus (Mus musculus, UniProt P68404).
T3 construct: we generated expression vectors for eight full-length mouse isozymes; expressed in transfected cells; host or cells: HEK293 (ATCC CRL-1573), transient transfection with CMV-PKC betaI-mVenus-N1
T3 sequence (P68404 whole entry): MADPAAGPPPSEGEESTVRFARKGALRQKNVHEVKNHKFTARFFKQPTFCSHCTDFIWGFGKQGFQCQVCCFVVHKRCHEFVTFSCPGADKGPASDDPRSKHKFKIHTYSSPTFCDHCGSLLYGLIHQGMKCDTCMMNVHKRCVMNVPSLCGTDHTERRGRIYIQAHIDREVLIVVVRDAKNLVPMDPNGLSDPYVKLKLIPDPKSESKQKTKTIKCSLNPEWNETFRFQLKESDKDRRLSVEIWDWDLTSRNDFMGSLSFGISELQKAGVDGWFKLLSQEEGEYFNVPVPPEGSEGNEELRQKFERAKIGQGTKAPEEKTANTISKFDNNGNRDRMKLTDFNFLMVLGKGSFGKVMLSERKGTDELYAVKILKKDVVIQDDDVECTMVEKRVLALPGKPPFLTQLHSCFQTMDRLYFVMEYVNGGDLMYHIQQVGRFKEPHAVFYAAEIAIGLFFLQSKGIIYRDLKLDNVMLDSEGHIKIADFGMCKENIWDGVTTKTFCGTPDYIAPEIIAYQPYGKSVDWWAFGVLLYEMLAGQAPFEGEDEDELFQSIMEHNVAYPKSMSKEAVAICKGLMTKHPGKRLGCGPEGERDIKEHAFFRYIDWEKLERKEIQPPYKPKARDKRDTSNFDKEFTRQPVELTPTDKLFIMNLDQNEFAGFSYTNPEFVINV
The experiment in a line: Confocal microscopy of translocation of PKCβI-mVenus in HEK293 cells. The data set is classed as cell-based. Conditions: 2 μM, 2 h. The protocol:
FIGS. 36A-36D provide confocal and DIC micrographs of living HEK293 cells transiently transfected to express PKCβI-mVenus. […] Scale bars=10 microns.
This IRES vector was derived from a previously reported^52 variant encoding the somewhat less fluorescent protein Venus.
Living cells cultured on an 8-well chamber glass slide (Ibidi μ-Slide, 300 μL, 100,000 cells/well) were imaged with an inverted Leica TCS SP8 confocal laser-scanning microscope (63× oil-immersion objective). Fluorescent probes were excited at 405 nm and mVenus was excited at 488 nm. Emitted photons were collected from 425-500 nm and 500-650 nm. For imaging, transiently transfected HEK293 cells in complete medium (10% FBS) were plated on the Ibidi μ-Slide for 16 h to promote adherence. Concentrated stock solutions of fluorescent probes in DMSO were serially diluted 500-fold in serum-free DMEM medium to afford 2× stock solutions (0.2% DMSO). Half of the cell culture medium (150 μL) was carefully removed by pipet and gently replaced with the 2× stock solution of the probe in serum-free medium (final [FBS]˜5%). Cells were treated with probes (2 μM) at 37° C. for 2 h before imaging by microscopy. Laser power and PMT gain settings were identical for all images and controls within a given experiment for accurate comparisons of cellular fluorescence.

The test system of data set [12] is HEK293 cells expressing PKCβI-mVenus. The data set is described as follows: Kinetics of uptake of probes in HEK293 cells transiently transfected with PKCβI-mVenus. Conditions: probe 1 μM, room temperature, BIM1 2 μM, 4% FBS. The data set is classed as cell-based. As for the experimental part: Cells were treated with probes and analyzed by flow cytometry. […] [BIM1]=2 μM. [FBS]=4%.
as §1
The cells were re-suspended in fresh reduced serum media lacking antibiotics (4% FBS) at a cell density of ˜500,000 cells per mL and were added to a 96-well plate (100 μL per well). […] Fluorescent probes were prepared as absorbance-normalized 1 mM DMSO stock solutions and diluted into reduced serum DMEM media lacking antibiotics (4% FBS) to achieve a final concentration of the probe of 1 μM ([…]). [BIM1]=2 μM. After addition of probes, cells were analyzed at room temperature every 5 min as singletons. Living cells with the greatest green fluorescence from expression of mVenus (top 20%, transfected) and the lowest green fluorescence (bottom 20%, non-transfected) were gated to obtain median PB450 values of uptake of the fluorescent probes. For the slower kinetics of uptake of probe 3, cells were analyzed every 20 min in triplicate. These curves were fitted with a one-phase association model (GraphPad Prism 9) to determine t1/2 values.

In the case of `NC(=O)c1cc2c3ccccc3ccn2c1-c1ccccc1` [NSC 93427], in data set [1] (10 μM), the “inhibition of cellular fluorescence” value is “nearly complete inhibition”. This compound returned an IC50 in data set [1] (HeLa cells, PB-GABA-Taxol) of under 1000 nM. The fluorescent microtubule phenotype result in [2] is on record as “dose-dependent disruption of microtubules”. Further, in data set [3], the “cooperativity factor α” value stood at 0.02. Besides, the Kb in data set [3] (read-out: cellular Kb (allosteric modulator)) is 485 nM and 483 nM.
As to `CC(=O)O[C@H]1C(=O)[C@]2(C)[C@@H](OC(=O)CCCNC(=O)c3cc4cc(F)c(O)c(F)c4oc3=O)C[C@H]3OC[C@@]3(OC(C)=O)[C@H]2[C@H](OC(=O)c2ccccc2)[C@]2(O)C[C@H](OC(=O)[C@H](O)[C@@H](NC(=O)c3ccccc3)c3ccccc3)C(C)=C1C2(C)C` [PB-GABA-Taxol], the “reduction of apparent affinity by ligand depletion in 10% FBS” value in data set [4] (10% FBS vs 4% or 1% FBS) was 2 fold. For the same compound, the Kd was 1700 ± 400 nM in [4] (HeLa cells, 4% FBS, 37° C., verapamil 100 μM, 3 h, read-out: cellular Kd of PB-GABA-Taxol for microtubules) and 265 nM in data set [6]. Moreover, in [5] (37° C., verapamil 100 μM), the cells remaining viable was over 90%. Also, the changes in viability entry in [5] (binding assay conditions, even with 100 μM paclitaxel) was “less than 10%”. The “half-time (t1/2) to equilibration of cellular fluorescence” value came out at 0.55 h in data set [7] (37° C., verapamil 100 μM) and 1.45 h in [7] (room temperature (23° C.)).
For `CC(=O)O[C@H]1C(=O)[C@@]2(C)[C@H]([C@H](OC(=O)c3ccccc3)[C@]3(O)C[C@H](O)C(C)=C1C3(C)C)[C@]1(OC(C)=O)CO[C@@H]1C[C@@H]2O` [baccatin III], the “inhibition of binding of PB-GABA-Taxol to cellular microtubules” value in [1] (25 μM, 3 h, normalized to DMSO (0%) and paclitaxel 10 μM (100%)) amounted to 28%. Besides, the Kd in data set [6] is 6700 ± 2000 nM. In addition, in [8], the Ki came to 17000 ± 3000 nM.
As to `COc1cc2c(c(OC)c1OC)-c1ccc(OC)c(=O)cc1[C@@H](NC(C)=O)CC2` [colchicine], the IC50 at 48 h in data set [9] (with verapamil 25 µM, verapamil 25 μM) worked out at 13 ± 0.4 nM; in data set [9] (without verapamil), 20 ± 8 nM.
With `CCCCCCN(CCCCCCCCCCCCNC(=O)c1cc2ccc(O)cc2oc1=O)C(=O)O[C@@]12[C@H](O)[C@@H](C)[C@@]3(O)[C@@H](C=C(CO)C[C@]4(O)C(=O)C(C)=C[C@@H]34)[C@@H]1C2(C)C` [probe 2, (1aR,1bS,4aR,7aS,7bS,8R,9R,9aS)-4a,7b,9-trihydroxy-3-(hydroxymethyl)-1,1,6,8-tetramethyl-5-oxo-1,1a,1b,4,4a,5,7a,7b,8,9-decahydro-9aH-cyclopropa[3,4]benzo[1,2-e]azulen-9a-yl hexyl(12-(7-hydroxy-2-oxo-2H-chromene-3-carboxamido)dodecyl)carbamate], the “Cellular Kd for probe, PKCβI-mVenus” value in data set [10] is “prevented reliable measurements of cellular affinity”. The “translocation of PKCβI-mVenus” value in [11] is “translocated to cellular membranes”. In data set [12], the “half-time (t1/2) of cellular uptake in transfected cells” value is 0.233 h.
Consider `CCCCCCN(CCCCCCCCCCCCNC(=O)c1cc2ccc(N(CC)CC)cc2oc1=O)C(=O)O[C@@]12[C@H](O)[C@@H](C)[C@@]3(O)[C@@H](C=C(CO)C[C@]4(O)C(=O)C(C)=C[C@@H]34)[C@@H]1C2(C)C` [probe 3, (1aR,1bS,4aR,7aS,7bS,8R,9R,9aS)-4a,7b,9-trihydroxy-3-(hydroxymethyl)-1,1,6,8-tetramethyl-5-oxo-1,1a,1b,4,4a,5,7a,7b,8,9-decahydro-9aH-cyclopropa[3,4]benzo[1,2-e]azulen-9a-yl (12-(7-(diethylamino)-2-oxo-2H-chromene-3-carboxamido)dodecyl)(hexyl)carbamate], for which, in data set [11], the “translocation of PKCβI-mVenus” value is reported as “translocated to cellular membranes”. In data set [12], the “half-time (t1/2) of cellular uptake in transfected cells” value was over 1.67 h.
